As usually defined, the Ki is the dissociation constant of the complex between target and ligand, obtained from inhibition or displacement.

Starred links: 1 amine or outer side, 2 acyl side, 3 side chain; linkers in the order of their positions; H or OH if unused. Non-standard residues stand in square brackets, D forms with d. Residues, ends and D or L forms follow the SMILES beside them. ξ: configuration not given here. *: point of attachment. X23 = CCC(N*)C(=O)c1ncc(-c2c(Cl)cccc2Cl)o1; Bip = N[CH](Cc1ccc(-c2ccccc2)cc1)C(=O)O; X45 = O=C([C@@H]1C2CC2CN1[*:1])[*:2]; 1Nal = N[CH](Cc1cccc2ccccc12)C(=O)O; 2Nal = N[CH](Cc1ccc2ccccc2c1)C(=O)O; Hydrocinnamoyl = O=C(CCc1ccccc1)*; Pyrazinecarbonyl = O=C(c1cnccn1)*; 3Pal = N[CH](Cc1cccnc1)C(=O)O; Hyp = O=C(O)[CH]1C[CH](O)CN1; X12 = CCC(N*)C(=O)c1nccs1; Abu = CC[CH](N)C(=O)O; CO = O=C([*:1])[*:2]; Bz = O=C(c1ccccc1)*; NHPh = c1ccc(N*)cc1; ξAbu = CCC(N)C(=O)O; Bn = c1ccc(C*)cc1 Where only a bound is given, the exact number is not on record here.

For the experiment, the target named is T1, HCV NS3 protease (Hepatitis C virus genotype 1a, UniProt P27958).
T1 construct: more particularly HCV NS3 proteases
T1 sequence (P27958 1027-1208): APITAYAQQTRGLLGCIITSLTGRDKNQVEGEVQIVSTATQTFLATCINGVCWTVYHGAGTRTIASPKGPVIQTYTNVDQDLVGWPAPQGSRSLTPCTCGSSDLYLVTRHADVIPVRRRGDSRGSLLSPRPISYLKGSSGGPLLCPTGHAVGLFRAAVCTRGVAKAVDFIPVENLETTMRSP
The experiment can be described thus: Enzyme inhibition of HCV NS3 serine protease (cleavage of peptide substrate / EDVV AbuC-p-nitroanilide, with or without NS4A). The class given is biochemical. The conditions noted are these: Enzyme inhibition data; Ki from rate vs [inhibitor] plots, Morrison tight binding competitive inhibition fit; 30 C, pH 7.8; read-out: Ki. Summed up:
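Spectrophotometric assay at 30 °C following pNA release at 405 nm from EDVV AbuC-pNA substrate, with or without NS4A. Ki from rate versus [inhibitor] fitted to Morrison's tight-binding competitive inhibition equation; Kii/Kis from mixed-inhibition fits; values reported in μM.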
`CCC(NC(=O)C(CC(C)C)NC(=O)C(NC(=O)C(NC(=O)C(CC(=O)O)NC(=O)C(N)CCC(=O)O)C(C)C)C(C)C)C(=O)c1nccs1` (stereo not shown) [Compound 125] (H-EDVVL-X12; configuration not given here): the inhibitory constant (Ki) was 1 to 100 µM. For `CCC(NC(=O)C(CC(C)C)NC(=O)C(NC(=O)C(NC(=O)C(CC(=O)O)NC(=O)C(N)CCC(=O)O)C(C)C)C(C)C)C(=O)c1ncc(-c2c(Cl)cccc2Cl)o1` (stereo not shown) [Compound 126] (H-EDVVL-X23; configuration not given here), the Ki is over 100 µM.

As for `CCC(C=O)NC(=O)C1CC(OCc2ccccc2)CN1C(=O)C(NC(=O)C(Cc1cccnc1)NC(=O)c1cnccn1)C(C)C` (stereo not shown) [Compound 127] (Pyrazinecarbonyl-[3Pal]V[Hyp](Bn)[Abu]-aldehyde; configuration not given here), the Ki is over 100 µM. As for `CCC(C=O)NC(=O)C1CC(OCc2ccccc2)CN1C(=O)C(NC(=O)C(Cc1ccc(-c2ccccc2)cc1)NC(=O)c1cnccn1)C(C)C` (stereo not shown) [Compound 130] (Pyrazinecarbonyl-[Bip]V[Hyp](Bn)[Abu]-aldehyde; configuration not given here), the inhibition constant Ki was over 100 µM. Next, `CCC(C=O)NC(=O)C1CC(OCc2ccccc2)CN1C(=O)C(NC(=O)C(Cc1cccc2ccccc12)NC(=O)c1cnccn1)C(C)C` (stereo not shown) [Compound 131] (Pyrazinecarbonyl-[1Nal]V[Hyp](Bn)[Abu]-aldehyde; configuration not given here): 1 to 100 µM.

On to `CCC(C=O)NC(=O)C1CC(OCc2ccccc2)CN1C(=O)C(NC(=O)C(Cc1ccc2ccccc2c1)NC(=O)c1cnccn1)C(C)C` (stereo not shown) [Compound 132] (Pyrazinecarbonyl-[2Nal]V[Hyp](Bn)[Abu]-aldehyde; configuration not given here), for which the inhibition constant Ki was in the range of 1 to 100 µM.

As for `CCC(C=O)NC(=O)C1CC(OCc2ccccc2)CN1C(=O)C(NC(=O)C(Cc1c[nH]cn1)NC(=O)c1cnccn1)C(C)C` (stereo not shown) [Compound 134] (Pyrazinecarbonyl-HV[Hyp](Bn)[Abu]-aldehyde; configuration not given here), the inhibition constant Ki was over 100 µM. Consider `CCC(C=O)NC(=O)C1CC(OCc2ccccc2)CN1C(=O)C(NC(=O)C(Cc1ccccc1)NC(=O)c1cnccn1)C(C)C` (stereo not shown) [Compound 141] (Pyrazinecarbonyl-FV[Hyp](Bn)[Abu]-aldehyde; configuration not given here), for which the Ki was 1 to 100 µM.

Take `CCC(C=O)NC(=O)C1CC(OCc2ccccc2)CN1C(=O)C(NC(=O)C(NC(=O)c1cnccn1)C(C)OCc1ccccc1)C(C)C` (stereo not shown) [Compound 142] (Pyrazinecarbonyl-T(Bn)V[Hyp](Bn)[Abu]-aldehyde; configuration not given here): the Ki was 1 to 100 µM. Next, `CCC(C=O)NC(=O)C1CC(OCc2ccccc2)CN1C(=O)C(NS(=O)(=O)Cc1ccccc1)C(C)C` (stereo not shown) [Compound 143]: over 100 µM.

Regarding `CCC(C=O)NC(=O)C1CC(OCc2ccccc2)CN1C(=O)C(NS(=O)(=O)c1ccccc1)C(C)C` (stereo not shown) [Compound 144], the Ki was over 100 µM. As for `CCC(C=O)NC(=O)C1CC(OCc2ccccc2)CN1C(=O)C(NC(=O)Nc1ccccc1)C(C)C` (stereo not shown) [Compound 145] ({NHPh-CO}-Val-[Hyp](Bn)-[Abu]-aldehyde; configuration not given here), the Ki was 1 to 100 µM. As for `CCC(C=O)NC(=O)C1CC(OCc2ccccc2)CN1C(=O)C(NC(=O)CCc1ccccc1)C(C)C` (stereo not shown) [Compound 147] (Hydrocinnamoyl-Val-[Hyp](Bn)-[Abu]-aldehyde; configuration not given here), the Ki is over 100 µM.

For `CCC(C=O)NC(=O)C1CC(OCc2ccccc2)CN1C(=O)C(NC(=O)c1ccccc1)C(C)C` (stereo not shown) [Compound 149] (Bz-Val-[Hyp](Bn)-[Abu]-aldehyde; configuration not given here), the inhibition constant (Ki) lay in the range of 1 to 100 µM. Next, `CCC(C=O)NC(=O)C1CC(OCc2ccccc2)CN1C(=O)C(NC(=O)Cc1ccc(NC(C)=O)cc1)C(C)C` (stereo not shown) [Compound 152]: over 100 µM; `CCC(C=O)NC(=O)C1CC(OCc2ccccc2)CN1C(=O)C(NC(=O)c1ccc[nH]1)C(C)C` (stereo not shown) [Compound 153]: 1 to 100 µM. On to `CCC(C=O)NC(=O)C1CC(OCc2ccccc2)CN1C(=O)C(NC(=O)c1cc2ccccc2[nH]1)C(C)C` (stereo not shown) [Compound 154], for which the Ki was in the range of 1 to 100 µM.

Turning to `CCC(C=O)NC(=O)C1CC(OCc2ccccc2)CN1C(=O)C(NC(=O)Cc1csc(N)n1)C(C)C` (stereo not shown) [Compound 155], the Ki was in the range of 1 to 100 µM. On to `CCC(C=O)NC(=O)C1CC(OCc2ccccc2)CN1C(=O)C(NC(=O)c1ccc(O)c(Cl)c1)C(C)C` (stereo not shown) [Compound 156], for which the Ki lay within 1 to 100 µM. Next, `CCC(C=O)NC(=O)C1CC(OCc2ccccc2)CN1C(=O)C(NC(=O)c1nccc2ccccc12)C(C)C` (stereo not shown) [Compound 158]: 1 to 100 µM. Next, `CCC(C=O)NC(=O)C1CC(OCc2ccccc2)CN1C(=O)C(NC(=O)c1cccc2ccccc12)C(C)C` (stereo not shown) [Compound 159]: 1 to 100 µM. Regarding `CCC(C=O)NC(=O)C1CC(OCc2ccccc2)CN1C(=O)C(NC(=O)Cc1ccccc1[N+](=O)[O-])C(C)C` (stereo not shown) [Compound 161], the inhibition constant Ki was over 100 µM. Next, `CCC(C=O)NC(=O)C1CC(OCc2ccccc2)CN1C(=O)C(NC(=O)Cc1ccsc1)C(C)C` (stereo not shown) [Compound 163]: over 100 µM; `CCC(C=O)NC(=O)C1CC(OCc2ccccc2)CN1C(=O)C(NC(=O)C(OC)c1ccccc1)C(C)C` (stereo not shown) [Compound 164]: over 100 µM; `CCC(C=O)NC(=O)C1CC(OCc2ccccc2)CN1C(=O)C(NC(=O)CCCc1ccccc1)C(C)C` (stereo not shown) [Compound 166]: over 100 µM. Next, `CCC(C=O)NC(=O)C1CC(OCc2ccccc2)CN1C(=O)C(NC(=O)c1c(O)ccc2ccccc12)C(C)C` (stereo not shown) [Compound 168]: 1 to 100 µM. With `CCC(C=O)NC(=O)C1CC(OCc2ccccc2)CN1C(=O)C(NC(=O)COc1ccccc1C=O)C(C)C` (stereo not shown) [Compound 169], the inhibition constant Ki was over 100 µM. In the case of `CCC(C=O)NC(=O)C1CC(OCc2ccccc2)CN1C(=O)C(NC(=O)CCC(=O)c1ccccc1)C(C)C` (stereo not shown) [Compound 170], the Ki was over 100 µM.

As to `CCC(C=O)NC(=O)C1CC(OCc2ccccc2)CN1C(=O)C(NC(=O)CCOc1ccccc1)C(C)C` (stereo not shown) [Compound 171], the inhibition constant Ki was over 100 µM. Consider `CCCCC(C(=O)O)C(=O)NC(C(=O)N1CC(OCc2ccccc2)CC1C(=O)NC(C=O)CC)C(C)C` (stereo not shown) [Compound 172], for which the Ki was over 100 µM. Next, `CCCC(C(=O)NC(C(=O)N1CC(OCc2ccccc2)CC1C(=O)NC(C=O)CC)C(C)C)c1ccccc1` (stereo not shown) [Compound 174]: 1 to 100 µM.

`CCC(C=O)NC(=O)C1CC(OCc2ccccc2)CN1C(=O)C(NC(=O)c1c[nH]c2ccccc12)C(C)C` (stereo not shown) [Compound 175]: the inhibitory constant (Ki) fell in the range of 1 to 100 µM. Regarding `CCC(C=O)NC(=O)C1CC(OCc2ccccc2)CN1C(=O)C(NC(=O)C1CCCC1c1ccccc1)C(C)C` (stereo not shown) [Compound 177], the Ki was over 100 µM.

`CCC(C=O)NC(=O)C1CC(OCc2ccccc2)CN1C(=O)C(NC(=O)c1c(-c2ccccc2Cl)noc1C)C(C)C` (stereo not shown) [Compound 182]: the Ki is over 100 µM. Next, `CCC(C=O)NC(=O)C1CC(OCc2ccccc2)CN1C(=O)C(NC(=O)c1c2c(nc3ccccc13)CCCC2)C(C)C` (stereo not shown) [Compound 183]: 1 to 100 µM; `CCC(C=O)NC(=O)C1CC(OCc2ccccc2)CN1C(=O)C(NC(=O)c1c(-c2c(Cl)cccc2Cl)noc1C)C(C)C` (stereo not shown) [Compound 186]: over 100 µM; `CCC(C=O)NC(=O)C1CC(OCc2ccccc2)CN1C(=O)C(NC(=O)c1cc(C)oc1C)C(C)C` (stereo not shown) [Compound 189]: over 100 µM. Next, `CCC(C=O)NC(=O)C1CC(OCc2ccccc2)CN1C(=O)C(NC(=O)c1c(C)cc(C)cc1C)C(C)C` (stereo not shown) [Compound 191]: over 100 µM. Turning to `CCC(C=O)NC(=O)C1CC(OCc2ccccc2)CN1C(=O)C(NC(=O)c1cccc(C)c1O)C(C)C` (stereo not shown) [Compound 192], the Ki is over 100 µM. Next, `CCC(C=O)NC(=O)C1CC(OCc2ccccc2)CN1C(=O)C(NC(=O)c1c(C)cccc1C)C(C)C` (stereo not shown) [Compound 193]: over 100 µM. Next, `CCC(C=O)NC(=O)C1CC(OCc2ccccc2)CN1C(=O)C(NC(=O)c1ccccc1Br)C(C)C` (stereo not shown) [Compound 195]: 1 to 100 µM; `CCOc1ccc2ccccc2c1C(=O)NC(C(=O)N1CC(OCc2ccccc2)CC1C(=O)NC(C=O)CC)C(C)C` (stereo not shown) [Compound 197]: 1 to 100 µM. Regarding `CCC(C=O)NC(=O)[C@@H]1C2CC2CN1C(=O)[C@@H](NC(=O)[C@@H](NC(=O)[C@H](CC(=O)O)NC(=O)[C@H](CCC(=O)O)NC(C)=O)C(C)C)C(C)C` (stereo partly shown) [Compound 198] (Ac-EDVV[X45][ξAbu]-aldehyde), the Ki is under 1 µM.

The values are drawn from patent publication US7388017B2, “Inhibitors of serine proteases, particularly hepatitis C virus NS3 protease” (Vertex Pharmaceuticals Incorporated, priority 1996, dated 2008).
